Patent publication US20240132513A1, “BENZAZEPINE DERIVATIVES, COMPOSITIONS, AND METHODS FOR TREATING COGNITIVE IMPAIRMENT” (AGENEBIO, INC., priority 2022, published 2024)
Read-outs that look alike come from different tables or passages of the source.

Tests used:
GABAA α5 receptor = target: T1, GABAA α5 receptor (Rattus norvegicus, UniProt P19969); assay: GABAA α5 receptor occupancy with Ro 15-4513 tracer; format: in vivo, Long Evans rats; details: i.v.
T1 construct: from tissue; host or cells: rat brain in vivo; hippocampus versus cerebellum
T1 sequence (P19969 32-464 limits assumed): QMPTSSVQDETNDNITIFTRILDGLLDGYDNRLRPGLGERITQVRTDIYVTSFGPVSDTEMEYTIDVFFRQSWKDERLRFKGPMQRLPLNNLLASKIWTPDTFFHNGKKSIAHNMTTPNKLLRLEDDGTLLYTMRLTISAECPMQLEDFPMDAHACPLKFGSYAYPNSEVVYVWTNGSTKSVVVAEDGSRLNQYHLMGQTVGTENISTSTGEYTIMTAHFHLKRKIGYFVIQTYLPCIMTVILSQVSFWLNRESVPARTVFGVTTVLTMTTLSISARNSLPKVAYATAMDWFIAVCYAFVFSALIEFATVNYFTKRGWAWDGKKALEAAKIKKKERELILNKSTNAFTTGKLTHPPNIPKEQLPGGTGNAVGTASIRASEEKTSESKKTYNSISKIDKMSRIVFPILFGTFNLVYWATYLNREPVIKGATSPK
Text: Food and water were available ad libitum.

α5β3γ2 GABAA R = α5β3γ2 GABAA R (Homo sapiens, UniProt P18507+P31644); assay: Binding activity on GABAA R: inhibition of [3H]Ro15-1788 binding, α5 containing receptor
α5β3γ2 GABAA R, sequence (P31644 32-462): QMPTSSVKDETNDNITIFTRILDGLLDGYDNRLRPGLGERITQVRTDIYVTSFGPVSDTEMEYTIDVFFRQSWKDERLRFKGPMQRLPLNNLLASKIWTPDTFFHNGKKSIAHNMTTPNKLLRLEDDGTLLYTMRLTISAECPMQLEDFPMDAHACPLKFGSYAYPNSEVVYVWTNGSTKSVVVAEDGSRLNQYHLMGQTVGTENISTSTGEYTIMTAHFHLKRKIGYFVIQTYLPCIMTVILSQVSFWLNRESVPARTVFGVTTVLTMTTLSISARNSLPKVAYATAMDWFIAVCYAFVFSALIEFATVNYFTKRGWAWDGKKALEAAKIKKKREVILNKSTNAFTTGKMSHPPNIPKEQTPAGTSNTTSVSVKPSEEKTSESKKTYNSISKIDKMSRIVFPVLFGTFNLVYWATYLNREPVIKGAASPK
α5β3γ2 GABAA R, sequence (P28472 26-473 partner): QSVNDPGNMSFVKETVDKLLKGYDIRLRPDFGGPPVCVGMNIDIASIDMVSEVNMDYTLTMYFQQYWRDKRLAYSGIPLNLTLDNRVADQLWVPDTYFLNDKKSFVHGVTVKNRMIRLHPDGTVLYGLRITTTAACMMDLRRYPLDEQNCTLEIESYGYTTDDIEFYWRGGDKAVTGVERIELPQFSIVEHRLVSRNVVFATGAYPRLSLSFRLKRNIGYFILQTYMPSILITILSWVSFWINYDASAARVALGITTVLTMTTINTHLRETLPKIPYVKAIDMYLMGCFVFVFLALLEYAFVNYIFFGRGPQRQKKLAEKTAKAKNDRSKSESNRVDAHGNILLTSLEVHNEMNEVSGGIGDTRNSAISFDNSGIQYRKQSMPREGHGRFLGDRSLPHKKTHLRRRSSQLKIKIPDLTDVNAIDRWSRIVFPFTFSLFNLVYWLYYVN
α5β3γ2 GABAA R, sequence (P18507 40-475): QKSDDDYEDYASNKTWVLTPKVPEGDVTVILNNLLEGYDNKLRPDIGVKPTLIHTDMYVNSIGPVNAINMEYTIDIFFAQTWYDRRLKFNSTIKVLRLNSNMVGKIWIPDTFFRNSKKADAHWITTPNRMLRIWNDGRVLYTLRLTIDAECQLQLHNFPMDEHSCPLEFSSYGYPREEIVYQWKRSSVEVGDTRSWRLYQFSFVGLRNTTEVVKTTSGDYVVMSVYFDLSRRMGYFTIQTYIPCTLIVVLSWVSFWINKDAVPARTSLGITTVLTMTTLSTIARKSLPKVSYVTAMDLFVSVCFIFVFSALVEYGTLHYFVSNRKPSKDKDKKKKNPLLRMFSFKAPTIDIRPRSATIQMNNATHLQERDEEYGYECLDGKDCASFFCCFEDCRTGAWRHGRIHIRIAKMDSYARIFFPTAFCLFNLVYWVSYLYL
Procedure, shortened: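 Displacement of [3H]Ro15-1788 (flumazenil) measured at 4 °C over 1 h using 0.2 mg/ml membrane protein from Ltk cells carrying α5β3γ2 GABAA receptors, expression induced with 0.5 μM dexamethasone for 1 day; buffer pH 7.4 KH2PO4/EDTA/KCl. 10 μM diazepam defined nonspecific binding; filter-trapped radioactivity counted, in triplicate.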

GABAA R (α5β2γ2) = target: T2, GABAA R (α5β2γ2) (Homo sapiens, UniProt P18507+P31644); assay: Positive allosteric modulator activity: potentiation of EC20 GABA current in oocytes; format: cell-based
T2 construct: expressed in transfected cells
T2 sequence (P31644 32-462): as the sequence (P31644 32-462) above
T2 sequence (P47870 25-512 partner limits assumed): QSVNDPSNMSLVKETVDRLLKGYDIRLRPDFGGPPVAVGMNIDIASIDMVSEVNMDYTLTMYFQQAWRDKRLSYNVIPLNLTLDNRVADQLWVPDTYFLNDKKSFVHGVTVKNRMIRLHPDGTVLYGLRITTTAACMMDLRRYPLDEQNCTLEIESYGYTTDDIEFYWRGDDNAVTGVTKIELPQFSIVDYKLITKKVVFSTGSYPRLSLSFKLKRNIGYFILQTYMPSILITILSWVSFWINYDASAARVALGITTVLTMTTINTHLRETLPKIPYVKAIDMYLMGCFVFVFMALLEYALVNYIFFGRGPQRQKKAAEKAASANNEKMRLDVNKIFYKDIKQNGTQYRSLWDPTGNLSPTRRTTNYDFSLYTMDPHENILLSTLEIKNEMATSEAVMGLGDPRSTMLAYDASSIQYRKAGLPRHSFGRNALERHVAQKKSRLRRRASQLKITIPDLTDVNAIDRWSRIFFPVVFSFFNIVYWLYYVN
T2 sequence (P18507 40-475): as the sequence (P18507 40-475) above
Procedure, shortened: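 Xenopus oocytes injected with 1 ng α5:β2:γ2 cDNA (1:1:10 by weight), tested day 2, voltage-clamped at −60 mV under MBS superfusion.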

[1] = read-out: GABA α5 Functional Data: potentiation, @ 100 nM, EC20 GABA, ranges of the column heads
[2] = ranges of the column heads, [3H]Ro15-1788, Ltk cell membranes
[3] = read-out: GABA α5 Functional Data: potentiation

| Compound | Ki (α5β3γ2 GABAA R) | activation at 0.1 µM (GABAA R (α5β2γ2); [1]) | further results |
| --- | --- | --- | --- |
| CCOC(=O)c1ncn2c1CN(C)C(=O)c1cc(N=[N+]=[N-])ccc1-2 [Ro 15-4513] | – | – | level of Ro 15-4513 in cerebellum (GABAA α5 receptor; tracer 1 μg/kg, after vehicle): 0.36 ± 0.02 ng/g; level of Ro 15-4513 in hippocampus (GABAA α5 receptor; tracer 1 μg/kg, after vehicle): 1.93 ± 0.05 ng/g; levels of Ro 15-4513 in hippocampus compared with cerebellum (GABAA α5 receptor; tracer 1 μg/kg, after vehicle): > 5 fold |
| Clc1ccc2c(c1)-c1[nH]ncc1Cc1c(-c3nc(C4CCOC4)no3)ncn1-2 (stereo not shown) [Compound 108] | < 100 nM | 20 to 50% | – |
| Clc1ccc2c(c1)-c1nn(CC3CCCO3)cc1Cc1c(-c3noc(C4CCOC4)n3)ncn1-2 (stereo not shown) [Compound 308] | < 100 nM | 20 to 50% | – |
| COc1ccc2c(c1)-c1[nH]ncc1Cc1c(-c3nc(C)no3)ncn1-2 [Compound 9] | – | – | Ki (α5β3γ2 GABAA R; [2]): < 100 nM; activation at 0.1 µM (GABAA R (α5β2γ2); [3]): 5 to 20% |
| COc1ccc2c(c1)-c1nn(CC3COC3)cc1Cc1c(-c3nc(COC4CCOC4)no3)ncn1-2 (stereo not shown) [Compound 310] | < 100 nM | 20 to 50% | – |
| Cn1cc2c(n1)-c1cc(Cl)ccc1-n1cnc(-c3nc(C4CCOCC4)no3)c1C2 [Compound 219] | < 100 nM | 5 to 20% | – |
| CCn1cc2c(n1)-c1cc(Cl)ccc1-n1cnc(-c3nc(C4CC4)no3)c1C2 [Compound 133] | – | – | Ki (α5β3γ2 GABAA R; [2]): < 100 nM; activation at 0.1 µM (GABAA R (α5β2γ2); [3]): 20 to 50% |
| Cn1cc2c(n1)-c1cc(Cl)ccc1-n1cnc(-c3nc(CN4CCOCC4)no3)c1C2 [Compound 250] | – | – | Ki (α5β3γ2 GABAA R; [2]): < 100 nM; activation at 0.1 µM (GABAA R (α5β2γ2); [3]): > 50% |
| Cc1noc(-c2ncn3c2Cc2cn[nH]c2-c2cc(Cl)ccc2-3)n1 [Compound 33] | < 100 nM | 20 to 50% | – |
| COc1ccc2c(c1)-c1nn(C)cc1Cc1c(-c3nc(C(C)(C)C)no3)ncn1-2 [Compound 118] | < 100 nM | 20 to 50% | – |
| Cn1cc2c(n1)-c1cc(Cl)ccc1-n1cnc(-c3noc(COC4CCCC4)n3)c1C2 [Compound 211] | < 100 nM | 20 to 50% | – |
| CCn1cc2c(n1)-c1cc(Cl)ccc1-n1cnc(C3=N[C@@H](c4ccccc4)CO3)c1C2 [Compound 179] | < 100 nM | 20 to 50% | – |
| CCOC(=O)c1ncn2c1Cn1c(C)nnc1-c1cc(OC)ccc1-2 | – | – | Ro 15-4513 binding in hippocampus (GABAA α5 receptor; 0.01-10 mg/kg): blocked the binding of Ro154513 in the hippocampus; Ro 15-4513 levels/binding in cerebellum (GABAA α5 receptor; 0.01-10 mg/kg): did not affect binding of Ro15413 in the cerebellum |
| COc1ccc2c(c1)-c1nn(CC3CCCO3)cc1Cc1c(-c3noc(C(F)(F)F)n3)ncn1-2 (stereo not shown) [Compound 295] | < 100 nM | 20 to 50% | – |
| COc1ccc2c(c1)-c1[nH]ncc1Cc1c(-c3nc(C(C)(C)C)no3)ncn1-2 [Compound 11] | < 100 nM | 5 to 20% | – |
| CCn1cc2c(n1)-c1cc(Cl)ccc1-n1cnc(C3=N[C@H](C(C)C)CO3)c1C2 [Compound 177] | < 100 nM | 5 to 20% | – |
| COc1ccc2c(c1)-c1nn(CC3COC3)cc1Cc1c(-c3noc(C(C)(C)OC)n3)ncn1-2 [Compound 312] | < 100 nM | 5 to 20% | – |
| Cn1cc2c(n1)-c1cc(Cl)ccc1-n1cnc(-c3nc(COC4COC4)co3)c1C2 [Compound 285] | < 100 nM | > 50% | – |
| COc1ccc2c(c1)-c1nn(Cc3ccccc3F)cc1Cc1c(-c3nc(C)no3)ncn1-2 [Compound 21] | < 100 nM | 5 to 20% | – |
| FC(F)(F)c1noc(-c2ncn3c2Cc2cn(CC4CCOC4)nc2-c2cc(Cl)ccc2-3)n1 (stereo not shown) [Compound 200] | – | – | Ki (α5β3γ2 GABAA R; [2]): < 100 nM; activation at 0.1 µM (GABAA R (α5β2γ2); [3]): 20 to 50% |
| CC(C)c1noc(-c2ncn3c2Cc2cn(CC4CCOCC4)nc2-c2cc(Cl)ccc2-3)n1 [Compound 251] | – | – | Ki (α5β3γ2 GABAA R; [2]): < 100 nM; activation at 0.1 µM (GABAA R (α5β2γ2); [3]): 5 to 20% |
| COCc1noc(-c2ncn3c2Cc2cn(CC4CCCO4)nc2-c2cc(Cl)ccc2-3)n1 (stereo not shown) [Compound 288] | < 100 nM | > 50% | – |
| FC(F)(F)c1nc(-c2ncn3c2Cc2cn[nH]c2-c2cc(Cl)ccc2-3)no1 [Compound 85] | < 100 nM | 5 to 20% | – |
| Cn1cc2c(n1)-c1cc(Cl)ccc1-n1cnc(-c3nc(C4CCOC4)no3)c1C2 (stereo not shown) [Compound 134] | < 100 nM | 20 to 50% | – |
| CC(C)c1nc(-c2ncn3c2Cc2cn(C)nc2-c2cc(Cl)ccc2-3)no1 [Compound 141] | < 100 nM | 20 to 50% | – |
| COc1ccc2c(c1)-c1nn(C)cc1Cc1c(-c3nc(C4CC4)no3)ncn1-2 [Compound 120] | – | – | Ki (α5β3γ2 GABAA R; [2]): < 100 nM; activation at 0.1 µM (GABAA R (α5β2γ2); [3]): 20 to 50% |
| CC(C)c1noc(-c2ncn3c2Cc2cn(C(C)C)nc2-c2cc(Cl)ccc2-3)n1 [Compound 138] | < 100 nM | 20 to 50% | – |
| COc1ccc2c(c1)-c1nn(CC3CCCO3)cc1Cc1c(-c3nnc(C(F)(F)F)o3)ncn1-2 (stereo not shown) [Compound 302] | < 100 nM | 5 to 20% | – |
| COc1ccc2c(c1)-c1c(cnn1Cc1ccccc1)Cc1c(-c3nc(C)no3)ncn1-2 [Compound 7] | – | – | Ki (α5β3γ2 GABAA R; [2]): < 100 nM; activation at 0.1 µM (GABAA R (α5β2γ2); [3]): 20 to 50% |
| COc1ccc2c(c1)-c1nn(C3CCOC3)cc1Cc1c(-c3noc(COCC(F)(F)F)n3)ncn1-2 (stereo not shown) [Compound 279] | < 100 nM | 20 to 50% | – |
